From PubChem BioAssay (NCI)
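Results reflect a 48-hour exposure of cells in 96-well plates to compound at five concentrations. GI50: concentration for 50% inhibition of growth. TGI: total growth inhibition.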

Experiments:
Assay in all cases: DTP human tumour cell line panel, 48 h
EKVX NSCLC = test system: EKVX NSCLC
NCI-H226 lung = test system: NCI-H226 lung
HCT-116 colon = test system: HCT-116 colon
TK-10 renal = test system: TK-10 renal
HCC-2998 colon = test system: HCC-2998 colon
NCI-H460 lung = test system: NCI-H460 lung
UO-31 renal = test system: UO-31 renal
OVCAR-3 ovarian = test system: OVCAR-3 ovarian
MDA-MB-435 = test system: MDA-MB-435
HL-60(TB) leukemia = test system: HL-60(TB) leukemia
HOP-62 NSCLC = test system: HOP-62 NSCLC
OVCAR-5 ovarian = test system: OVCAR-5 ovarian
SK-OV-3 ovarian = test system: SK-OV-3 ovarian
CAKI-1 renal = test system: CAKI-1 renal
U251 CNS = test system: U251 CNS
SF-295 CNS = test system: SF-295 CNS
NCI-H522 lung = test system: NCI-H522 lung
SR leukemia = test system: SR leukemia
SNB-75 CNS = test system: SNB-75 CNS
SW-620 colon = test system: SW-620 colon
MOLT-4 leukemia = test system: MOLT-4 leukemia
RPMI-8226 leukemia = test system: RPMI-8226 leukemia
CCRF-CEM leukemia = test system: CCRF-CEM leukemia
MALME-3M melanoma = test system: MALME-3M melanoma
SNB-19 CNS = test system: SNB-19 CNS
A498 renal = test system: A498 renal
NCI-H23 lung = test system: NCI-H23 lung
SK-MEL-5 melanoma = test system: SK-MEL-5 melanoma
HCT-15 colon = test system: HCT-15 colon
A549 NSCLC = test system: A549 NSCLC
T-47D breast = test system: T-47D breast
SF-268 CNS = test system: SF-268 CNS
ACHN renal = test system: ACHN renal
SF-539 CNS = test system: SF-539 CNS
KM12 colon = test system: KM12 colon
SK-MEL-28 melanoma = test system: SK-MEL-28 melanoma
MCF7 breast = test system: MCF7 breast
SN12C renal = test system: SN12C renal
HOP-92 NSCLC = test system: HOP-92 NSCLC
OVCAR-4 ovarian = test system: OVCAR-4 ovarian
K-562 leukemia = test system: K-562 leukemia
COLO 205 colon = test system: COLO 205 colon
OVCAR-8 ovarian = test system: OVCAR-8 ovarian
RXF 393 renal = test system: RXF 393 renal
IGROV1 ovarian = test system: IGROV1 ovarian
DU-145 prostate = test system: DU-145 prostate
LOX IMVI melanoma = test system: LOX IMVI melanoma
MDA-MB-231 breast = test system: MDA-MB-231 breast
UACC-62 melanoma = test system: UACC-62 melanoma

CCOC(=O)c1c(NC(=O)c2cccc(C(F)(F)F)c2)sc2c3c(ccc12)OCN(C)C3
GI50 (EKVX NSCLC): 1.64 µM | TGI (EKVX NSCLC): 3.24 µM | GI50 (NCI-H226 lung): 1.78 µM | TGI (NCI-H226 lung): 3.78 µM | GI50 (HCT-116 colon): 1.95 µM | TGI (HCT-116 colon): 4.74 µM | GI50 (TK-10 renal): 1.91 µM | TGI (TK-10 renal): 3.81 µM | GI50 (HCC-2998 colon): 1.52 µM | TGI (HCC-2998 colon): 2.98 µM | GI50 (NCI-H460 lung): 1.64 µM | TGI (NCI-H460 lung): 3.28 µM | GI50 (UO-31 renal): 1.53 µM | TGI (UO-31 renal): 2.94 µM | GI50 (OVCAR-3 ovarian): 1.7 µM | TGI (OVCAR-3 ovarian): 3.21 µM | GI50 (MDA-MB-435): 1.69 µM | TGI (MDA-MB-435): 3.13 µM | GI50 (HL-60(TB) leukemia): 1.54 µM | TGI (HL-60(TB) leukemia): 4.29 µM | GI50 (HOP-62 NSCLC): 2.33 µM | TGI (HOP-62 NSCLC): 6.08 µM | GI50 (OVCAR-5 ovarian): 1.67 µM | TGI (OVCAR-5 ovarian): 3.15 µM | GI50 (SK-OV-3 ovarian): 2.07 µM | TGI (SK-OV-3 ovarian): 4.31 µM | GI50 (CAKI-1 renal): 1.57 µM | TGI (CAKI-1 renal): 2.99 µM | GI50 (U251 CNS): 1.85 µM | TGI (U251 CNS): 3.93 µM | GI50 (SF-295 CNS): 1.78 µM | TGI (SF-295 CNS): 3.35 µM | GI50 (NCI-H522 lung): 2.22 µM | TGI (NCI-H522 lung): 5.55 µM | GI50 (SR leukemia): 0.463 µM | TGI (SR leukemia): 4.58 µM | GI50 (SNB-75 CNS): 1.53 µM | TGI (SNB-75 CNS): 3.28 µM | GI50 (SW-620 colon): 0.873 µM | TGI (SW-620 colon): 2.27 µM | GI50 (MOLT-4 leukemia): 1.86 µM | TGI (MOLT-4 leukemia): 4.54 µM | GI50 (RPMI-8226 leukemia): 1.54 µM | TGI (RPMI-8226 leukemia): 4.27 µM | GI50 (CCRF-CEM leukemia): 1.56 µM | TGI (CCRF-CEM leukemia): 4.62 µM | GI50 (MALME-3M melanoma): 1.98 µM | TGI (MALME-3M melanoma): 3.74 µM | GI50 (SNB-19 CNS): 1.79 µM | TGI (SNB-19 CNS): 3.64 µM | GI50 (A498 renal): 1.63 µM | TGI (A498 renal): 3.07 µM | GI50 (NCI-H23 lung): 1.89 µM | TGI (NCI-H23 lung): 3.84 µM | GI50 (SK-MEL-5 melanoma): 1.77 µM | TGI (SK-MEL-5 melanoma): 3.27 µM | GI50 (HCT-15 colon): 1.31 µM | TGI (HCT-15 colon): 2.69 µM | GI50 (A549 NSCLC): 2.07 µM | TGI (A549 NSCLC): 4.9 µM | GI50 (T-47D breast): 1.94 µM | TGI (T-47D breast): 4.57 µM | GI50 (SF-268 CNS): 1.89 µM | TGI (SF-268 CNS): 3.79 µM | GI50 (ACHN renal): 1.76 µM | TGI (ACHN renal): 3.27 µM | GI50 (SF-539 CNS): 1.66 µM | TGI (SF-539 CNS): 3.19 µM | GI50 (KM12 colon): 1.68 µM | TGI (KM12 colon): 3.19 µM | GI50 (SK-MEL-28 melanoma): 1.71 µM | TGI (SK-MEL-28 melanoma): 3.14 µM | GI50 (MCF7 breast): 1.67 µM | TGI (MCF7 breast): 3.3 µM | GI50 (SN12C renal): 1.8 µM | TGI (SN12C renal): 3.53 µM | GI50 (HOP-92 NSCLC): 1.4 µM | TGI (HOP-92 NSCLC): 3.05 µM | GI50 (OVCAR-4 ovarian): 1.79 µM | TGI (OVCAR-4 ovarian): 3.61 µM | GI50 (K-562 leukemia): 0.394 µM | TGI (K-562 leukemia): 1.8 µM | GI50 (COLO 205 colon): 2.21 µM | TGI (COLO 205 colon): 5.08 µM | GI50 (OVCAR-8 ovarian): 2.26 µM | TGI (OVCAR-8 ovarian): 5.24 µM | GI50 (RXF 393 renal): 1.47 µM | TGI (RXF 393 renal): 3.02 µM | GI50 (IGROV1 ovarian): 1.69 µM | TGI (IGROV1 ovarian): 3.5 µM | GI50 (DU-145 prostate): 1.79 µM | TGI (DU-145 prostate): 3.23 µM | GI50 (LOX IMVI melanoma): 1.68 µM | TGI (LOX IMVI melanoma): 3.25 µM | GI50 (MDA-MB-231 breast): 1.7 µM | TGI (MDA-MB-231 breast): 3.33 µM | GI50 (UACC-62 melanoma): 1.68 µM | TGI (UACC-62 melanoma): 3.17 µM
